9 molecules from patent US9328138B2 (priority 2011, dated 2016) can be followed below.

SMILES strings stand for the structures. Some results are limits rather than exact numbers.

Test [1] concerns the target T1, HCV genotype 1b (BK) NS3 modified enzyme with a R155K mutation (Hepatitis C virus genotype 1b, UniProt P26663, R1181K).
T1 construct: HCV genotype 1b (BK) NS3 modified enzyme
As to the kind of experiment: HCV NS3 protease time-resolved fluorescence (TRF) assay, genotype 1b R155K. In kind it is biochemical. The settings on record: Ki 1b R155K, genotype 1b (BK) NS3 R155K; single value. In a few lines: (§1)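 Steps: compound plus NS3/NS4A enzyme for 10 minutes; add peptide substrate to 25 nM; let cleavage proceed 6 hours at room temperature; read product fluorescence (340 nm excitation, 615 nm emission, delayed 400 μs). Enzyme levels gave signal/background 5-20.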

Test [2] addresses HCV NS3 protease genotype 3a (3A-1) (Hepatitis C virus genotype 3a, UniProt Q81258). Nature of the test: HCV NS3 protease time-resolved fluorescence (TRF) assay, genotype 3a. The note with it: Ki 3a. In kind it is biochemical. In a few lines:
as §1

In the case of `C=C[C@@H]1C[C@]1(NC(=O)[C@@H]1C[C@@H]2CN1C(=O)[C@H](C1CCCC1)NC(=O)O[C@@H]1CCC[C@H]1CC/C=C/Cc1c(nc3ccccc3c1OCCO)O2)C(=O)NS(=O)(=O)C1CC1` [Example 69, (3aR,7S,10S,12R,21E,24aS)-7-cyclopentyl-N-{(1R,2S)-1-[(cyclopropylsulfonyl)carbamoyl]-2-ethenylcyclopropyl}-19-(2-hydroxyethoxy)-5,8-dioxo-1,2,3,3a,5,6,7,8,11,12,20,23,24,24a-tetradecahydro-10H-9,12-methanocyclopenta[18,19][1,10,3,6]dioxadiazacyclononadecino[11,12-b]quinoline-10-carboxamide], the Ki (usually the equilibrium dissociation constant of an inhibitor or competing ligand from its target) in test [1] is < 0.016 nM; in test [2], 1.8 nM.

For the molecule `C=C[C@@H]1C[C@]1(NC(=O)[C@@H]1C[C@@H]2CN1C(=O)[C@H](C1CCCC1)NC(=O)O[C@@H]1CCC[C@H]1CC/C=C/Cc1c(nc3ccccc3c1OCCCOCCOC)O2)C(=O)NS(=O)(=O)C1(C)CC1` [Example 57, (3aR,7S,10S,12R,21E,24aS)-7-cyclopentyl-N-[(1R,2S)-2-ethenyl-1-{[(1-methylcyclopropyl)sulfonyl]carbamoyl}cyclopropyl]-19-[3-(2-methoxyethoxy)propoxy]-5,8-dioxo-1,2,3,3a, 5,6,7,8,11,12,20,23,24,24a-tetradecahydro-10H-9,12-methanocyclopenta[18,19][1,10,3,6]dioxadiazacyclononadecino[11,12-b] quinoline-10-carboxamide], the figures for the Ki in test [1] and in test [2] were 0.11 nM and 2.3 nM, respectively.

Turning to `C=C[C@@H]1C[C@]1(NC(=O)[C@@H]1C[C@@H]2CN1C(=O)[C@H](C(C)(C)C)NC(=O)O[C@@H]1C[C@H]1CCCCCc1c(nc3ccccc3c1OCCCN(CCO)Cc1ccccc1)O2)C(=O)NS(=O)(=O)C1(C)CC1` [Example 187, (1aR,5S,8S,10R,22aR)-17-{3-[benzyl(2-hydroxyethyl)amino]propoxy}-5-tert-butyl-N-[(1R,2S)-2-ethenyl-1-{[(1-methylcyclopropyl)sulfonyl]carbamoyl}cyclopropyl]-3,6-dioxo-1,1a, 3,4,5,6,9,10,18,19,20,21,22,22a-tetradecahydro-8H-7,10-methanocyclopropa[18,19][1,10,3,6] dioxadiazacyclononadecino[11,12-b] quinoline-8-carboxamide], the Ki in test [1] came out at 0.24 nM; in test [2], 6.1 nM.

Consider `C=C[C@@H]1C[C@]1(NC(=O)[C@@H]1C[C@@H]2CN1C(=O)[C@H](C(C)(C)C)NC(=O)O[C@@H]1C[C@H]1CCCCCc1c(nc3ccccc3c1OCCCN1CCC(OC)CC1)O2)C(=O)NS(=O)(=O)C1(C)CC1` [Example 156, (1aR,5S,8S,10R,22aR)-5-tert-butyl-N-[(1R,2S)-2-ethenyl-1-{[(1-methylcyclopropyl)sulfonyl]carbamoyl}cyclopropyl]-17-[3-(4-methoxypiperidin-1-yl)propoxy]-3,6-dioxo-1,1a,3,4,5,6,9, 10,18,19,20,21,22,22a-tetradecahydro-8H-7,10-methanocyclopropa[18,19] [1,10,3,6]dioxadiaza cyclononadecino[11,12-b]quinoline-8-carboxamide], for which the values for the inhibition constant Ki in test [1] and in test [2] were 0.079 nM and 0.84 nM, respectively.

For the molecule `C=C[C@@H]1C[C@]1(NC(=O)[C@@H]1C[C@@H]2CN1C(=O)[C@H](C1CCCCC1)NC(=O)O[C@@H]1C[C@H]1CCCCCc1c(nc3c(OC)cccc3c1OCC1CN(C(=O)OC(C)(C)C)C1)O2)C(=O)NS(=O)(=O)C1(C)CC1` [Example 215, tent-butyl 3-[({(1aS,5R,8S,10R,22aR)-5-cyclohexyl-8-[(2-ethenyl-1-{[(1-methylcyclopropyl)sulfonyl]carbamoyl}cyclopropyl)carbamoyl]-13-methoxy-3,6-dioxo-1,1a,3,4,5,6,9,10,18,19,20,21,22,22a-tetradecahydro-8H-7,10-methanocyclopropa[18,19][1,10,3,6]dioxadiazacyclononadecino[11,12-b]quinolin-1'7-yl}oxy)methyl]azetidine-1-carboxylate], the Ki in test [1] was 1.7 nM; in test [2] it was 55 nM.

Turning to `C=C[C@@H]1C[C@]1(NC(=O)[C@@H]1C[C@@H]2CN1C(=O)[C@H](C1CCCC1)NC(=O)O[C@@H]1CCC[C@H]1CC/C=C/Cc1c(nc3ccccc3c1OCCCOC(=O)CN(C)C)O2)C(=O)NS(=O)(=O)C1CC1` [Example 74], the Ki in test [1] came to 0.1 nM; in test [2], 1.3 nM.

As for `C=C[C@@H]1C[C@]1(NC(=O)[C@@H]1C[C@@H]2CN1C(=O)[C@H](C(C)(C)C)NC(=O)O[C@@H]1C[C@H]1CCCCCc1c(nc3cc(C(F)(F)F)ccc3c1OCCN1CCOCC1)O2)C(=O)NS(=O)(=O)C1(C)CC1` [Example 129, (1aR,5S,8S,10R,22aR)-5-tert-butyl-N-[(1R,2S)-2-ethenyl-1-{[(1-methylcyclopropyl)sulfonyl]carbamoyl}cyclopropyl]-17-[2-(morpholin-4-yl)ethoxy]-3,6-dioxo-14-(trifluoromethyl)-1,1a,3,4,5,6,9,10,18,19,20,21,22,22a-tetradecahydro-8H-7,10-methanocyclopropa[18,19][1,10,3,6] dioxadiazacyclononadecino[11,12-b] quinoline-8-carboxamide], the inhibition constant (Ki) came out at 0.51 nM in test [1] and 8.7 nM in test [2].

Consider `C=C[C@@H]1C[C@]1(NC(=O)[C@@H]1C[C@@H]2CN1C(=O)[C@H](C(C)(C)C)NC(=O)O[C@@H]1C[C@H]1CCCCCc1c(nc3cc(C(C)C)ccc3c1OCCCNC(C)C)O2)C(=O)NS(=O)(=O)C1(C)CC1` [Example 160, (1aR,5S,8S,10R,22aR)-5-tert-butyl-N-[(1R,2S)-2-ethenyl-1-{[(1-methylcyclopropyl)sulfonyl]carbamoyl}cyclopropyl]-3,6-dioxo-14-(propan-2-yl)-17-[3-(propan-2-ylamino)propoxy]-1,1a,3,4,5,6,9, 10,18,19,20,21,22,22a-tetradeca hydro-8H-7,10-methanocyclopropa[18,19] [1,10,3,6]dioxadiazacyclononadecino [11,12-b]quinoline-8-carboxamide], for which the figures for the inhibition constant Ki in test [1] and in test [2] were 0.053 nM and 0.44 nM, respectively.

Consider `C=C[C@@H]1C[C@]1(NC(=O)[C@@H]1C[C@@H]2CN1C(=O)[C@H](C(C)(C)C)NC(=O)O[C@@H]1C[C@H]1CCCCCc1c(nc3ccccc3c1OCCN1CC(O)C1)O2)C(=O)NS(=O)(=O)C1(C)CC1` [Example 174, (1aR,5S,8S,10R,22aR)-5-tert-butyl-N-[(1R,2S)-2-ethenyl-1-{[(1-methylcyclopropyl)sulfonyl]carbamoyl}cyclopropyl]-17-[2-(3-hydroxyazetidin-1-yl)ethoxy]-3,6-dioxo-1,1a,3,4,5,6,9,10,18,19,20,21,22,22a-tetradecahydro-8H-7,10-methanocyclopropa[18,19][1,10,3,6] dioxadiazacyclononadecino[11,12-b] quinoline-8-carboxamide], for which the inhibition constant Ki stood at 0.057 nM in test [1] and 1.1 nM in test [2].
